# Patent publication US10428017B2, “Modulators of the cystic fibrosis transmembrane conductance regulator protein and methods of use” (AbbVie S.à.r.l., priority 2017, dated 2019)
# Read-outs that look alike come from different tables or passages of the source.
# Target: T1, F508delCFTR (Homo sapiens, UniProt P13569, DEL508-508)
# T1 construct: expressed in transfected cells; host or cells: CFBE4lo-F508delCFTR-HRP cells (human lung derived epithelial cell line, doxycycline-inducible)
# Test: Cell Surface Expression-Horse Radish Peroxidase (CSE-HRP) Assay
# Assay type: cell-based
# Conditions: for EC50: CFBE4lo-F508delCFTR-HRP cells, 18-24 hours at 33° C.; for Emax / Maximum % activity (with co-corrector): maximum at any tested concentration (up to 20 μM), normalized to on-plate positive control (2 μM co-corrector); for Maximum % activity (with co-corrector): with co-corrector 2 μM
# Procedure: Cell Surface Expression-Horse Radish Peroxidase (CSE-HRP) Assay
# A cellular assay for measuring the F508delCFTR cell surface expression after correction with test compounds either without or with a co-corrector (2 μM of 3-[(2R,4R)-4-({[1-(2,2-difluoro-1,3-benzodioxol-5-yl)cyclopropyl]carbonyl}amino)-7-methoxy-3,4-dihydro-2H-chromen-2-yl]benzoic acid), was developed in human lung derived epithelial cell line (CFBE4lo−) (Veit G et al, (2012) Mol Biol Cell. 23(21): 4188-4202). The development was achieved by expressing the F508delCFTR mutation along with a horseradish peroxidase (HRP) in the fourth exofacial loop, and then measuring the HRP activity using luminescence readout from these cells, CFBE4lo-F508delCFTR-HRP, that were incubated overnight with the test corrector compounds, either without or with the co-corrector. For this primary assay, the CFBE4lo-F508delCFTR-HRP cells were plated in 384-well plates (Greiner Bio-one; Cat 781080) at 4,000 cells/well along with 0.5 μg/mL doxycycline to induce the F508delCFTR-HRP expression and further incubated at 37° C., 5% CO2 for 72 hours. The test compounds were then added either without or with a co-corrector at the required concentrations and further incubated for 18-24 hours at 33° C. The highest concentration tested was 20 μM with an 8-point concentration response curve using a 3-fold dilution in both the test compound without or with the co-corrector. Three replicate plates were run to determine one EC50. All plates contained negative controls (dimethyl sulfoxide, DMSO) and positive control (2 μM of 3-[(2R,4R)-4-({[1-(2,2-difluoro-1,3-benzodioxol-5-yl)cyclopropyl]carbonyl}amino)-7-methoxy-3,4-dihydro-2H-chromen-2-yl]benzoic acid) as well as on-plate concentration response of the positive control. Post incubation, the plates were washed 5× times with Dulbecco's phosphate buffered saline (DPBS), followed by the addition of the HRP substrate, luminol (50 μL), and measuring the HRP activity using luminescence readout on EnVision® Multilabel Plate Reader (Perkin Elmer; product number 2104-0010). The raw counts from the experiment were analyzed using Accelrys® Assay Explorer v3.3.
# Z′ greater than 0.5 was used as passing quality control criteria for the plates.
# The Z′ is defined as: 1−[3*SDPositive Control+3*SDNegative Control/Absolute(Meanpostivie Control−MeanNegative Control)] wherein “SD” is standard deviation.
# The % activity measured at each of the 8 test concentrations of the test compound added either without or with a co-corrector (2 μM of 3-[(2R,4R)-4-({[1-(2,2-difluoro-1,3-benzodioxol-5-yl)cyclopropyl]carbonyl}amino)-7-methoxy-3,4-dihydro-2H-chromen-2-yl]benzoic acid) was normalized to the on-plate positive control using the following formulae: % activity(Test compound without co-corrector)=[(test compound without co-corrector response−DMSO response)/(positive control response−DMSO response)]*100 % activity(Test compound with co-corrector)=[(test compound with co-corrector response−DMSO response)/(positive control response−DMSO response)]*100
# The maximum % activity achieved for the test compound either without or with a co-corrector at any tested concentration is presented in Table 1 along with the respective EC50's calculated using the following general sigmoidal curve with variable Hill slope equation (described as Model 42 in the Accelrys® Assay Explorer v3.3 software): y=(a−d)/(1+(x/c)^b)+d
# General sigmoidal curve with concentration, response, top, bottom, EC50 and Hill slope. This model describes a sigmoidal curve with an adjustable baseline, a. The equation can be used to fit curves where response is either increasing or decreasing with respect to the independent variable, “x”.
# “x” is a concentration of drug under test.
# “a” is the maximum response, and “d” is the minimum response
# “c” is the inflection point (EC50) for the curve. That is, “y” is halfway between the lower and upper asymptotes when x=c.
# “b” is the slope-factor or Hill coefficient. […]
# [1] = test compound without co-corrector, HRP luminescence readout, read-out: EC50 (without co-corrector)
# [2] = test compound without co-corrector
# [3] = with co-corrector 2 μM 3-[(2R,4R)-4-({[1-(2,2-difluoro-1,3-benzodioxol-5-yl)cyclopropyl]carbonyl}amino)-7-methoxy-3,4-dihydro-2H-chromen-2-yl]benzoic acid, read-out: EC50 (with co-corrector)
# T1 sequence (P13569 with tags, fused parts or gaps DEL508-508): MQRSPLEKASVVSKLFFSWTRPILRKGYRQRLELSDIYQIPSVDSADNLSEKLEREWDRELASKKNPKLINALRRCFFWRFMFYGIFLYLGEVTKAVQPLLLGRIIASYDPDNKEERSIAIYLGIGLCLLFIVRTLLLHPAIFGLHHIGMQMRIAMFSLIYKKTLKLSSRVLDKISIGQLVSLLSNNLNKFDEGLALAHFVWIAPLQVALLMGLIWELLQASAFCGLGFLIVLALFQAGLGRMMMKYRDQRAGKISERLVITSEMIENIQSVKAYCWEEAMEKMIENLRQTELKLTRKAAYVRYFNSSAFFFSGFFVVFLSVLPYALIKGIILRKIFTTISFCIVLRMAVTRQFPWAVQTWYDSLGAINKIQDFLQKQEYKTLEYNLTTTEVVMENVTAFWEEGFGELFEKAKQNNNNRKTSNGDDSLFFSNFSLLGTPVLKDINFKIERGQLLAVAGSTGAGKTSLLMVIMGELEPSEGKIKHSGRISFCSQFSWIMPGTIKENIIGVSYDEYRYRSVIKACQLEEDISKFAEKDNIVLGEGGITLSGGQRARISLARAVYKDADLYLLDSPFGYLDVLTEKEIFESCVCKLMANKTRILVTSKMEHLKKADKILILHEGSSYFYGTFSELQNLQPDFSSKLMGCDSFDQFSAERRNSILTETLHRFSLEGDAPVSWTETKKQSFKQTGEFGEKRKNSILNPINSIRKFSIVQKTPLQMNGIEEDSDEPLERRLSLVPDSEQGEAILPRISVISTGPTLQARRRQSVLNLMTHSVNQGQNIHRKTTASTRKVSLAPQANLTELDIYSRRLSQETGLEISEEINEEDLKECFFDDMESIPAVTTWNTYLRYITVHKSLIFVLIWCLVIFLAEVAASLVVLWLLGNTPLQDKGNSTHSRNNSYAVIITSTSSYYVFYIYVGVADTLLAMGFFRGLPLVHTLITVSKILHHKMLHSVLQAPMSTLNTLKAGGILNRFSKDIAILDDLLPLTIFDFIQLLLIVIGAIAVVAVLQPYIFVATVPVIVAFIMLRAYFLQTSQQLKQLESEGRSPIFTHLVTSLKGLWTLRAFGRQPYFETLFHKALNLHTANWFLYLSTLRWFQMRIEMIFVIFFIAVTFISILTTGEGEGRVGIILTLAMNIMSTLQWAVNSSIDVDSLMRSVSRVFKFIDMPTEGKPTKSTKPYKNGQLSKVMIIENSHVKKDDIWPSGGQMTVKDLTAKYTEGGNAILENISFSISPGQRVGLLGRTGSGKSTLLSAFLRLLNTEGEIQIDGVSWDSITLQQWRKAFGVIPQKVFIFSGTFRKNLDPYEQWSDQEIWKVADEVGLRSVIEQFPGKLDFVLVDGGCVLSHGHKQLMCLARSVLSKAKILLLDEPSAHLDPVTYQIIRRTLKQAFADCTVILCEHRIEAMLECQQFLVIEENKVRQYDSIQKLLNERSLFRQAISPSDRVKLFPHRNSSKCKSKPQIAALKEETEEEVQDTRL
compound,measurement,setting,value
"COc1ccc(C2CCC2)c2c1C(C(=O)NS(=O)(=O)c1cccc3ncn(C)c13)CO2 (centres unmarked) [Example 87, 7-cyclobutyl-4-methoxy-N-(1-methyl-1H-benzimidazole-7-sulfonyl)-2,3-dihydro-1-benzofuran-3-carboxamide]",EC50,[1],< 3 µM
same,Emax,[2],≥ 150%
same,EC50,[3],< 3 µM
same,Maximum % activity (with co-corrector),,+++ (≥350)
"COc1ccc(Br)c2c1[C@H](C(=O)NS(=O)(=O)c1cccc3ccccc13)CO2 (single isomer, unassigned) [Example 74]",EC50,[1],< 3 µM
same,Emax,[2],≥ 150%
same,EC50,[3],< 3 µM
same,Maximum % activity (with co-corrector),,+++ (≥350)
"COc1ccc(C2CCC2)c2c1[C@@H](C(=O)NS(=O)(=O)c1cccc3nc(C)ccc13)CCO2 [Example 76, (4S)-8-cyclobutyl-5-methoxy-N-(2-methylquinoline-5-sulfonyl)-3,4-dihydro-2H-1-benzopyran-4-carboxamide]",EC50,[1],3 to 10 µM
same,Emax,[2],≥ 150%
same,EC50,[3],3 to 10 µM
same,Maximum % activity (with co-corrector),,+++ (≥350)
"COc1ccc(C2CCC2)c2c1[C@@H](C(=O)NS(=O)(=O)c1cccc3c1CCCN3)CCO2 [Example 91, (4S)-8-cyclobutyl-5-methoxy-N-(1,2,3,4-tetrahydroquinoline-5-sulfonyl)-3,4-dihydro-2H-1-benzopyran-4-carboxamide]",EC50,[1],3 to 10 µM
same,Emax,[2],≥ 150%
same,EC50,[3],3 to 10 µM
same,Maximum % activity (with co-corrector),,+++ (≥350)
"COc1ccc(C2CCC2)c2c1[C@@H](C(=O)NS(=O)(=O)c1cccc3c1CCCN3)CO2 [Example 100, (3R)-7-cyclobutyl-4-methoxy-N-(1,2,3,4-tetrahydroquinoline-5-sulfonyl)-2,3-dihydro-1-benzofuran-3-carboxamide]",EC50,[1],3 to 10 µM
same,Emax,[2],50 to 150%
same,EC50,[3],3 to 10 µM
same,Maximum % activity (with co-corrector),,+++ (≥350)
"COc1ccc(C2CCC2)c2c1[C@H](C(=O)NS(=O)(=O)c1cccc3c1CCCN3)CO2 [Example 101, (3S)-7-cyclobutyl-4-methoxy-N-(1,2,3,4-tetrahydroquinoline-5-sulfonyl)-2,3-dihydro-1-benzofuran-3-carboxamide]",EC50,[1],< 3 µM
same,Emax,[2],≥ 150%
same,EC50,[3],< 3 µM
same,Maximum % activity (with co-corrector),,+++ (≥350)
"COc1ccc(Br)c2c1[C@H](C(=O)NS(=O)(=O)c1cccc3ncccc13)CC(C)(C)O2 [Example 72, (4R)-8-bromo-5-methoxy-2,2-dimethyl-N-(quinoline-5-sulfonyl)-3,4-dihydro-2H-1-benzopyran-4-carboxamide]",EC50,[1],< 3 µM
same,Emax,[2],≥ 150%
same,EC50,[3],< 3 µM
same,Maximum % activity (with co-corrector),,+++ (≥350)
"COc1ccc(Br)c2c1C(C(=O)NS(=O)(=O)c1cccc3cccnc13)CCO2 (centres unmarked) [Example 42, 8-bromo-5-methoxy-N-(quinoline-8-sulfonyl)-3,4-dihydro-2H-1-benzopyran-4-carboxamide]",EC50,[1],3 to 10 µM
same,Emax,[2],50 to 150%
same,EC50,[3],< 3 µM
same,Maximum % activity (with co-corrector),,+++ (≥350)
"O=C(NS(=O)(=O)c1cccc2ccccc12)C1COc2c(Br)cccc21 (centres unmarked) [Example 21, 7-bromo-N-(naphthalene-1-sulfonyl)-2,3-dihydro-1-benzofuran-3-carboxamide]",EC50,[1],3 to 10 µM
same,Emax,[2],50 to 150%
same,EC50,[3],3 to 10 µM
same,Maximum % activity (with co-corrector),,++ (≥150 and <350)
"COc1ccc(C2CCC2)c2c1[C@H](C(=O)NS(=O)(=O)c1cccc3nc(C)ccc13)CCO2 [Example 77, (4R)-8-cyclobutyl-5-methoxy-N-(2-methylquinoline-5-sulfonyl)-3,4-dihydro-2H-1-benzopyran-4-carboxamide]",EC50,[1],3 to 10 µM
same,Emax,[2],≥ 150%
same,EC50,[3],< 3 µM
same,Maximum % activity (with co-corrector),,+++ (≥350)
"O=C(NS(=O)(=O)c1cccc2ccccc12)C1(c2ccccc2)C[C@@H](CN2CCCC2)Oc2ccccc21 (stereo partly drawn) [Example 31, (2S)—N-(naphthalene-1-sulfonyl)-4-phenyl-2-[(pyrrolidin-1-yl)methyl]-3,4-dihydro-2H-1-benzopyran-4-carboxamide]",EC50,[1],≥ 10 µM
same,Emax,[2],< 50%
same,EC50,[3],3 to 10 µM
same,Maximum % activity (with co-corrector),,++ (≥150 and <350)
